# From ChEMBL document CHEMBL5532665 (J Med Chem, 2024)
# Activity calls are given as the source filed them. The rule behind the calls is not given here.
# Tests used:
# [1] = system: Mus musculus; assay: Antinociceptive activity in Kunming mouse model assessed as latency of tail withdrawal at 1.4 nmol/kg, sc measured for 10 mins by tail-flick test relative to control; assay type: functional
# [2] = system: Mus musculus; assay: Antinociceptive activity in Kunming mouse model assessed as latency of tail withdrawal at 1.4 nmol/kg, sc measured for 30 mins by tail-flick test relative to control; assay type: functional; conditions: 0.5 h
# [3] = system: Mus musculus; assay: Antinociceptive activity in Kunming mouse model assessed as latency of tail withdrawal at 1.4 nmol/kg, sc measured for 60 mins by tail-flick test relative to control; assay type: functional; conditions: 1 h
# [4] = system: Mus musculus; assay: Antinociceptive activity in Kunming mouse model assessed as latency of tail withdrawal at 1.4 nmol/kg, sc measured for 120 mins by tail-flick test relative to control; assay type: functional; conditions: 2 h
# [5] = system: Mus musculus; assay: Antinociceptive activity in Kunming mouse model administered subcutaneously by tail-flick test; assay type: functional; conditions: route sc
# [6] = system: Mus musculus; assay: Antinociceptive activity in Kunming mouse model administered orally by tail-flick test; assay type: functional; conditions: route po
# [7] = system: Mus musculus; assay: Antinociceptive activity in Kunming mouse model administered subcutaneously measured for 5 to 15 mins by acetic acid-induced writhing test; assay type: functional; conditions: route sc, time 5-15 min
# [8] = system: Mus musculus; assay: Inhibition of gastrointestinal motility in fasted Kunming mouse model treated subcutaneously for 15 mins followed by charcoal-gum arabic treatment measured after 30 mins; assay type: functional; conditions: 0.75 h, route sc, time 45 min
# [9] = system: Mus musculus; assay: Antinociceptive activity in Kunming mouse model assessed as latency of tail withdrawal at 15007 nmol/kg, sc measured for 10 mins by tail-flick test relative to control; assay type: functional
# [10] = system: Mus musculus; assay: Antinociceptive activity in Kunming mouse model assessed as latency of tail withdrawal at 15007 nmol/kg, sc measured for 30 mins by tail-flick test relative to control; assay type: functional; conditions: 0.5 h
# [11] = system: Mus musculus; assay: Antinociceptive activity in Kunming mouse model assessed as latency of tail withdrawal at 15007 nmol/kg, sc measured for 60 mins by tail-flick test relative to control; assay type: functional; conditions: 1 h
# [12] = system: Mus musculus; assay: Antinociceptive activity in Kunming mouse model assessed as latency of tail withdrawal at 15007 nmol/kg, sc measured for 120 mins by tail-flick test relative to control; assay type: functional; conditions: 2 h
# [13] = target: T1, Mu-type opioid receptor (Homo sapiens, UniProt P35372); assay: Agonist activity at human MOR expressed in CHO-K1 cells co-expressing G-alpha15 by calcium mobilization assay; assay type: functional, cell-based
# T1 sequence (P35372 whole entry): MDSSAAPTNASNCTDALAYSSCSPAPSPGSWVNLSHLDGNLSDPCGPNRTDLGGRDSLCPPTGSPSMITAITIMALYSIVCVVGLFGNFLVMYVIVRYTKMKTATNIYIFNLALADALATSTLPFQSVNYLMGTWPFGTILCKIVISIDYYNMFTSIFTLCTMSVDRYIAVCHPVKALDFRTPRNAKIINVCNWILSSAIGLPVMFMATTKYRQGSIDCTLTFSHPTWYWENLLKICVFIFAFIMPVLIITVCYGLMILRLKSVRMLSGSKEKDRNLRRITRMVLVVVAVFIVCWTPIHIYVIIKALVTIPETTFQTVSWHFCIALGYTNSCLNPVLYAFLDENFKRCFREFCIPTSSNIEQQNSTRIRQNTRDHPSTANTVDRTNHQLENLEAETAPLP
# [14] = target: T1, Mu-type opioid receptor; assay: Agonist activity at human MOR expressed in CHO-K1 cells co-expressing G-alpha15 by calcium mobilization assay relative to control; assay type: functional, cell-based; conditions: filed as agonist
# [15] = target: T2, Delta-type opioid receptor (Homo sapiens, UniProt P41143); assay: Agonist activity at human DOR expressed in CHO-K1 cells co-expressing G-alpha15 by calcium mobilization assay; assay type: functional, cell-based
# T2 sequence (P41143 whole entry): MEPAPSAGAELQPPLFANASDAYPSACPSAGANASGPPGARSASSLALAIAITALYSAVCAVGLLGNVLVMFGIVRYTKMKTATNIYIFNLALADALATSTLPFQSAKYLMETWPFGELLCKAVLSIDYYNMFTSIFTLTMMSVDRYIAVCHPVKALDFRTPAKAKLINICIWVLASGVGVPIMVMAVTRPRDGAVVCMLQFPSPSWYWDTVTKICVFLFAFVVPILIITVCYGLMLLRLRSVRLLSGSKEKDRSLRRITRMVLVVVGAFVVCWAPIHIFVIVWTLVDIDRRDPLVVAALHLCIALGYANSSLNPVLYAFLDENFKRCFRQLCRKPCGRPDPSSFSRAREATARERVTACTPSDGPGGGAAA
# [16] = target: T2, Delta-type opioid receptor; assay: Agonist activity at human DOR expressed in CHO-K1 cells co-expressing G-alpha15 by calcium mobilization assay relative to control; assay type: functional, cell-based; conditions: filed as agonist
# [17] = system: Mus musculus; assay: Antinociceptive activity in Kunming mouse model assessed as latency of tail withdrawal at 14157 nmol/kg, sc measured for 10 mins by tail-flick test relative to control; assay type: functional
# [18] = system: Mus musculus; assay: Antinociceptive activity in Kunming mouse model assessed as latency of tail withdrawal at 14157 nmol/kg, sc measured for 30 mins by tail-flick test relative to control; assay type: functional; conditions: 0.5 h
# [19] = system: Mus musculus; assay: Antinociceptive activity in Kunming mouse model assessed as latency of tail withdrawal at 14157 nmol/kg, sc measured for 60 mins by tail-flick test relative to control; assay type: functional; conditions: 1 h
# [20] = system: Mus musculus; assay: Antinociceptive activity in Kunming mouse model assessed as latency of tail withdrawal at 14157 nmol/kg, sc measured for 120 mins by tail-flick test relative to control; assay type: functional; conditions: 2 h
# [21] = Stability in mouse plasma assessed as half life at 0.01 mol/L measured for 72 hrs by RP-HPLC analysis; assay type: ADME, cell-free
# [22] = target: Kappa-type opioid receptor (Homo sapiens, UniProt P41145); assay: Agonist activity at human KOR expressed in CHO-K1 cells co-expressing G-alpha15 upto 100 uM by calcium mobilization assay; assay type: functional, cell-based
# Kappa-type opioid receptor, sequence (P41145 whole entry): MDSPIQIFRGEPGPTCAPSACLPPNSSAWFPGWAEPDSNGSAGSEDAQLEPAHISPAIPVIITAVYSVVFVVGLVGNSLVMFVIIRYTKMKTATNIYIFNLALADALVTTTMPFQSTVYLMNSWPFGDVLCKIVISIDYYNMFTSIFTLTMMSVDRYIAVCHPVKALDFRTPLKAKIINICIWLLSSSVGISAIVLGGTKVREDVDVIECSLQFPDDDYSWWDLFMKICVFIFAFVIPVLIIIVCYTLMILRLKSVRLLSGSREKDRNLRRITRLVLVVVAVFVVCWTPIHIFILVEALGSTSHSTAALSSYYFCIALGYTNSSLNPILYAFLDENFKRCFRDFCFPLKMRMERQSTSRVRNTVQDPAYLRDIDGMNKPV
# [23] = system: Mus musculus; assay: Antinociceptive activity in Kunming mouse model assessed as latency of tail withdrawal at 144.4 nmol/kg, sc measured for 10 mins by tail-flick test relative to control; assay type: functional
# [24] = system: Mus musculus; assay: Antinociceptive activity in Kunming mouse model assessed as latency of tail withdrawal at 144.4 nmol/kg, sc measured for 30 mins by tail-flick test relative to control; assay type: functional; conditions: 0.5 h
# [25] = system: Mus musculus; assay: Antinociceptive activity in Kunming mouse model assessed as latency of tail withdrawal at 144.4 nmol/kg, sc measured for 60 mins by tail-flick test relative to control; assay type: functional; conditions: 1 h
# [26] = system: Mus musculus; assay: Antinociceptive activity in Kunming mouse model assessed as latency of tail withdrawal at 144.4 nmol/kg, sc measured for 120 mins by tail-flick test relative to control; assay type: functional; conditions: 2 h
# [27] = system: Mus musculus; assay: Antinociceptive activity in Kunming mouse model assessed as latency of tail withdrawal at 1404 nmol/kg, sc measured for 10 mins by tail-flick test relative to control; assay type: functional
# [28] = system: Mus musculus; assay: Antinociceptive activity in Kunming mouse model assessed as latency of tail withdrawal at 1404 nmol/kg, sc measured for 30 mins by tail-flick test relative to control; assay type: functional; conditions: 0.5 h
# [29] = system: Mus musculus; assay: Antinociceptive activity in Kunming mouse model assessed as latency of tail withdrawal at 1404 nmol/kg, sc measured for 60 mins by tail-flick test relative to control; assay type: functional; conditions: 1 h
# [30] = system: Mus musculus; assay: Antinociceptive activity in Kunming mouse model assessed as latency of tail withdrawal at 1404 nmol/kg, sc measured for 120 mins by tail-flick test relative to control; assay type: functional; conditions: 2 h
# [31] = system: Mus musculus; assay: Antinociceptive activity in Kunming mouse model assessed as latency of tail withdrawal at 1312 nmol/kg, sc measured for 10 mins by tail-flick test relative to control; assay type: functional
# [32] = system: Mus musculus; assay: Antinociceptive activity in Kunming mouse model assessed as latency of tail withdrawal at 1312 nmol/kg, sc measured for 30 mins by tail-flick test relative to control; assay type: functional; conditions: 0.5 h
# [33] = system: Mus musculus; assay: Antinociceptive activity in Kunming mouse model assessed as latency of tail withdrawal at 1312 nmol/kg, sc measured for 60 mins by tail-flick test relative to control; assay type: functional; conditions: 1 h
# [34] = system: Mus musculus; assay: Antinociceptive activity in Kunming mouse model assessed as latency of tail withdrawal at 1312 nmol/kg, sc measured for 120 mins by tail-flick test relative to control; assay type: functional; conditions: 2 h
structure (smiles),measurement,setting,value
NC(=O)[C@H]1CCCN1C(=O)[C@@H]1CC(=O)NCCCC[C@@H](NC(=O)[C@@H](N)Cc2ccc(O)cc2)C(=O)NCC(=O)N[C@@H](Cc2ccc(F)cc2)C(=O)N1,MPE,[1],59.2%
same,MPE,[2],93.1%
same,MPE,[3],84.1%
same,MPE,[4],34.3%
same,ED50,[5],8e-05 µmol/kg
same,ED50,[6],9e-05 µmol/kg
same,ED50,[7],0.0002 µmol/kg
same,ED50,[8],0.0044 µmol/kg
NC(=O)CNC(=O)[C@@H]1CC(=O)NCCCC[C@@H](NC(=O)[C@@H](N)Cc2ccc(O)cc2)C(=O)NCC(=O)N[C@@H](Cc2ccccc2)C(=O)N1,MPE,[9],73.4%
same,MPE,[10],92.5%
same,MPE,[11],74.1%
same,MPE,[12],43.1%
N[C@@H](Cc1ccc(O)cc1)C(=O)N[C@@H]1CCCCNC(=O)C[C@H](C(=O)N2CCC[C@H]2C(=O)O)NC(=O)[C@H](Cc2ccccc2)NC(=O)CNC1=O,EC50,[13],3.8 nM
same,Emax,[14],94.8%
same,EC50,[15],3.3 nM
same,Emax,[16],109%
same,MPE,[17],65%
same,MPE,[18],97.4%
same,MPE,[19],77%
same,MPE,[20],37.3%
same,half-life at 0.01 mol/L,[21],23 h
NC(=O)[C@@H]1CCCN1C(=O)[C@H]1CC(=O)NCCCC[C@@H](NC(=O)[C@@H](N)Cc2ccc(O)cc2)C(=O)NCC(=O)N[C@@H](c2ccccc2)C(=O)N1,Activity,[22],inactive
same,MPE,[23],44.4%
same,MPE,[24],94.4%
same,MPE,[25],87.5%
same,MPE,[26],44.4%
NC(=O)[C@H]1CCCN1C(=O)[C@@H]1CC(=O)NCCCC[C@@H](NC(=O)[C@@H](N)Cc2ccc(O)cc2)C(=O)NCC(=O)N[C@@H](CC2CCCCC2)C(=O)N1,MPE,[27],61.9%
same,MPE,[28],92.4%
same,MPE,[29],74.3%
same,MPE,[30],36.1%
CCCC[C@@H]1NC(=O)[C@H](NC(=O)[C@@H](N)Cc2ccc(O)cc2)CCCCNC(=O)C[C@H](C(=O)N2CCC[C@H]2C(N)=O)NC(=O)[C@H](Cc2ccccc2)NC1=O,EC50,[13],2170 nM
same,Emax,[14],88.6%
same,EC50,[15],20 nM
same,Emax,[16],83.9%
same,MPE,[31],50.4%
same,MPE,[32],90%
same,MPE,[33],75.1%
same,MPE,[34],28%
